Reference: ChEMBL document CHEMBL4507268 (2021)

Tests used:
Conditions in all cases: Compound concentration 1.0 uM
[1] = target: T1, Serine/threonine-protein kinase 17A (Homo sapiens) (UniProt Q9UEE5)
T1 sequence (whole entry): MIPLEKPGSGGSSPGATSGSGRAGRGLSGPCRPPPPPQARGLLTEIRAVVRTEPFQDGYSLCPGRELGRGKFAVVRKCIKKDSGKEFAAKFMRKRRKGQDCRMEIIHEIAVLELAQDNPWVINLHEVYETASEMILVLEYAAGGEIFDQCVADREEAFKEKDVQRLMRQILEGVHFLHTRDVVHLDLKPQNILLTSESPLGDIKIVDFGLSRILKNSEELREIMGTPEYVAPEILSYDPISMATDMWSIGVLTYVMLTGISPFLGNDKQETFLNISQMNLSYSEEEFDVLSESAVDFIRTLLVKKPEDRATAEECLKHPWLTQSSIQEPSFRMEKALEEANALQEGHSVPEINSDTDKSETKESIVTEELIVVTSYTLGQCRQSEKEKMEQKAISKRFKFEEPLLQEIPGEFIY

[2] = target: T2, Serine/threonine-protein kinase D2 (Homo sapiens) (UniProt Q9BZL6)
T2 sequence (whole entry): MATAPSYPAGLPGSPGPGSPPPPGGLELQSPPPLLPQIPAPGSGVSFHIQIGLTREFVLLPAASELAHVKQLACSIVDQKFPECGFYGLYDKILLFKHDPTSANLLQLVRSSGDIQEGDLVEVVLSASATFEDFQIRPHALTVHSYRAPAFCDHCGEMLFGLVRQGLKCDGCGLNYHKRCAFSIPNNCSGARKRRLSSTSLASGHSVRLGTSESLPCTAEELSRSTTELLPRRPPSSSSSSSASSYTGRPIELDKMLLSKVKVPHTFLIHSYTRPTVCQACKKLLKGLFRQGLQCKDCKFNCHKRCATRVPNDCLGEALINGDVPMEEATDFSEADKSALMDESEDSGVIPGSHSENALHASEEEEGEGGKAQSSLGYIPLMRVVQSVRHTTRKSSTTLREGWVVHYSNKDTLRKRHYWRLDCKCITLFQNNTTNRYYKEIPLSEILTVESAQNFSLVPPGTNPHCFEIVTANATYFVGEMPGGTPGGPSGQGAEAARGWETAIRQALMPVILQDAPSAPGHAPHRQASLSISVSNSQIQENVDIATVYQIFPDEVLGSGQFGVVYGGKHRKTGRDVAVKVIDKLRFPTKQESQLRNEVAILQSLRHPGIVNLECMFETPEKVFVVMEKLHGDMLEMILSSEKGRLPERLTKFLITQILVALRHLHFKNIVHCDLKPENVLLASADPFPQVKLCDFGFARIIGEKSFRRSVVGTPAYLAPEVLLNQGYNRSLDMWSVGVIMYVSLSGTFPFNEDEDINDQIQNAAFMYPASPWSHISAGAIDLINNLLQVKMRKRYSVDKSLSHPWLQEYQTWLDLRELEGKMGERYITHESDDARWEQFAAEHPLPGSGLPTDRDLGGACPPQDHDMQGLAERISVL

[3] = target: T3, NUAK family SNF1-like kinase 1 (Homo sapiens) (UniProt O60285)
T3 sequence (whole entry): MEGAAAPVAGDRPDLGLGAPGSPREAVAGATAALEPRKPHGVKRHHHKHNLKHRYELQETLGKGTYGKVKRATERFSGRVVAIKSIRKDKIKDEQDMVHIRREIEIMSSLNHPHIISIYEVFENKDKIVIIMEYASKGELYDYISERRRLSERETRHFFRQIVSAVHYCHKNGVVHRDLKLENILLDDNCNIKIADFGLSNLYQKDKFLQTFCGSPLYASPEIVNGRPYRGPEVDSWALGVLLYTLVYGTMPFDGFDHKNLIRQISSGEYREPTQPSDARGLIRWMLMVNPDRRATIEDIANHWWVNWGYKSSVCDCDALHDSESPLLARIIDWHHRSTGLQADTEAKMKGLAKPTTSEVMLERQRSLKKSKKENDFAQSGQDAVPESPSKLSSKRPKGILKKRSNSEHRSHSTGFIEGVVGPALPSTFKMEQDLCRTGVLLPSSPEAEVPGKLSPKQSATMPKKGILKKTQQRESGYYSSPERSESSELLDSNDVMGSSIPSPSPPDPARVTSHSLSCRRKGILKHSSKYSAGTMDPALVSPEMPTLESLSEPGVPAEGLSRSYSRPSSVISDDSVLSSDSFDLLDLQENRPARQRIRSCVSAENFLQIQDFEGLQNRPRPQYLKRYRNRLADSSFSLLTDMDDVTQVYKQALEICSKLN

[4] = target: T4, Dual specificity protein kinase TTK (Homo sapiens) (UniProt P33981)
T4 sequence (whole entry): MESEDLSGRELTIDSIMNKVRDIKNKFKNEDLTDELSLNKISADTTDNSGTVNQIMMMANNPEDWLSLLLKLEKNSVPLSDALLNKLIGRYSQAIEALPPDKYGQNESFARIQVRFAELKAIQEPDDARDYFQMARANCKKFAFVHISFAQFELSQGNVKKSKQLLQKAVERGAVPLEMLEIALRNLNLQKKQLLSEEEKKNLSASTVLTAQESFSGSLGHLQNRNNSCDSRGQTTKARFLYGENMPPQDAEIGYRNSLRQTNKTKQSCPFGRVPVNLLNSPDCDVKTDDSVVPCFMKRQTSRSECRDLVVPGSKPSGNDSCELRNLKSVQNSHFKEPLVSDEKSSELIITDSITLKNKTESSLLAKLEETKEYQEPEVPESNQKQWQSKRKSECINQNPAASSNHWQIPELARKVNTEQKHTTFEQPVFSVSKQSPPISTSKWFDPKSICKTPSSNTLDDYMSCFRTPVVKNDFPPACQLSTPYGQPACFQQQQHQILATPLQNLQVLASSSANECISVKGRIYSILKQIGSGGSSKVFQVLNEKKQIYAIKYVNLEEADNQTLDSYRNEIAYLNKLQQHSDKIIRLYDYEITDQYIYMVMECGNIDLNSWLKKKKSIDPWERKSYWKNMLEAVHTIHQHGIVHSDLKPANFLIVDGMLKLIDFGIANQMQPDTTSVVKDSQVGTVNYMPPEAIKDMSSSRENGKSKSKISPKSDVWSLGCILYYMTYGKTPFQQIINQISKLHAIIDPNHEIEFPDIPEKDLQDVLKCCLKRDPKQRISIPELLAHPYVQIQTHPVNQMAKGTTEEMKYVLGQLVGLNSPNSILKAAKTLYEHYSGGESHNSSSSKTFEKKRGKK

[5] = target: MAPK/MAK/MRK overlapping kinase (Homo sapiens) (UniProt Q9UQ07)
[6] = target: Serine/threonine-protein kinase NIM1 (Homo sapiens) (UniProt Q8IY84)
[7] = target: Maternal embryonic leucine zipper kinase (Homo sapiens) (UniProt Q14680)

Measured: % residual kinase activity

Sequence of MAPK/MAK/MRK overlapping kinase (Homo sapiens) (Q9UQ07 whole entry): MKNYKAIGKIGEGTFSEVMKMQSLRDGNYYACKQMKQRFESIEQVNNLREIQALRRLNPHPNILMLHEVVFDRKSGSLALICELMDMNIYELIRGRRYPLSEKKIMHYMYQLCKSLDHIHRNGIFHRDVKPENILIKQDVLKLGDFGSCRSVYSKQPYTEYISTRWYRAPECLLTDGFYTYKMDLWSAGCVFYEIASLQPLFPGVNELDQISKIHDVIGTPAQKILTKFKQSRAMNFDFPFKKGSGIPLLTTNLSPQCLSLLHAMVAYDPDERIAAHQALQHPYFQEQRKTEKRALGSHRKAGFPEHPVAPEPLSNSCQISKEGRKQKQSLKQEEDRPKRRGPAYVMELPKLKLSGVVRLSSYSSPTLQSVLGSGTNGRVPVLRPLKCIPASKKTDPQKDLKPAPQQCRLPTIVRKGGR
Sequence of Serine/threonine-protein kinase NIM1 (Homo sapiens) (Q8IY84 whole entry): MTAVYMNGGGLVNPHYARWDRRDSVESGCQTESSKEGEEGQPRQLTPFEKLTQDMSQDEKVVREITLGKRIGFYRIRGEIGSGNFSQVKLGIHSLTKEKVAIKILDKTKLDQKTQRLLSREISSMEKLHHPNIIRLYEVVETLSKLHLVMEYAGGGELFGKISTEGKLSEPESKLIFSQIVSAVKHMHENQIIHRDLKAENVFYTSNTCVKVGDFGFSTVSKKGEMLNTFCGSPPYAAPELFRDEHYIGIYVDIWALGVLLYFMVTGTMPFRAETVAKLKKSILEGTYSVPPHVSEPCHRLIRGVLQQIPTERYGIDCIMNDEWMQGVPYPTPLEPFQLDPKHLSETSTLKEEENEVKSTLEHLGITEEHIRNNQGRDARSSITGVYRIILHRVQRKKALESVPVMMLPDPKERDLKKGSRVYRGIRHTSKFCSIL
Sequence of Maternal embryonic leucine zipper kinase (Homo sapiens) (Q14680 whole entry, looked up): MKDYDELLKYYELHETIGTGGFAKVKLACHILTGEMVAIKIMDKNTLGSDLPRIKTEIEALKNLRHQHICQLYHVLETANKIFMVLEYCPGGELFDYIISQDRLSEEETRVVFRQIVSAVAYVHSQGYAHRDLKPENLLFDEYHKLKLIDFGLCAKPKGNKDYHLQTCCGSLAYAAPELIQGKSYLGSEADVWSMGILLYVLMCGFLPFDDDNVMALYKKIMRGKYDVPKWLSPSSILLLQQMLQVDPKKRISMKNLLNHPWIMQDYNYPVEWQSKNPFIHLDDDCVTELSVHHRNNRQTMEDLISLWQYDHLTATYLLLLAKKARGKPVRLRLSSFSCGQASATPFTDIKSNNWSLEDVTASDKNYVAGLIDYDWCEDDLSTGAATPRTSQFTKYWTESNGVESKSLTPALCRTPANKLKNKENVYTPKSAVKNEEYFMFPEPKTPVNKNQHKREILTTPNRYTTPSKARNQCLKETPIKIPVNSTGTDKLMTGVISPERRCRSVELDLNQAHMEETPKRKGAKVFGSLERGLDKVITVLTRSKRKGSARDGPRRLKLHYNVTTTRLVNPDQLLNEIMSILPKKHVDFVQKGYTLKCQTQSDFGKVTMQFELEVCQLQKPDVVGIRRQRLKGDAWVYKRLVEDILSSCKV

CN1CCN(c2cnc3c(C4CCN(C(=O)c5ccc(OC(F)(F)F)cc5N)CC4)ncnc3c2)CC1 [BAY-885]
inactive: [1] 85% | [2] 106% | [3] 101% | [4] 93% | [5] 94% | [6] 108% | [7] 105%
